# In US8227636B2, “Histone deacetylase inhibitor prodrugs” (Merck HDAC Research, LLC, priority 2004, dated 2012):
# What was measured:
# [1] = system: murine erythroleukemia cell line SC9; experiment: MTS assay (Cell Titer 96 Aqueous One Solution Cell Proliferation Assay); assay type: cell-based; settings: Mus musculus; SC9 cells, 48 hours incubation; unit inferred
# Procedure: The novel compounds of the present invention were tested for their ability to inhibit proliferation of the murine erythroleukemia cell line SC9. The MTS assay, also referred to as the Cell Titer 96 Aqueous One Solution Cell Proliferation Assay, is a colorimetric method for determining the number of viable cells in proliferation, cytotoxicity, or chemosensitivity assays. […] Murine erythroleukemia cells (SC-9) were incubated with vehicle or increasing concentrations of compound for 48 hours.
# [2] = biological target: T1, histone deacetylase, subtype 1 (HDAC1) (Homo sapiens, UniProt Q13547); experiment: HDAC1-Flag assay (in vitro deacetylation assay); assay type: biochemical; settings: for inhibition at 10 µM: 10 μM compound, read-out: HDAC1 % INH 10 μM; for inhibition at 100 µM: 100 μM compound, read-out: HDAC1 % INH 100 μM; for IC50: epitope-tagged human HDAC1 complex, substrate at Km, fluorogenic acetylated lysine substrate, read-out: HDAC1 IC50 Ave
# T1 construct: Flag; made in house
# Procedure: Novel compounds were tested for their ability to inhibit histone deacetylase, subtype 1 (HDAC1) using an in vitro deacetylation assay. The enzyme source for this assay was an epitope-tagged human HDAC1 complex immuno-purified from stably expressing mammalian cells. The substrate consisted of a commercial product containing an acetylated lysine side chain (BIOMOL Research Laboratories, Inc., Plymouth Meeting, Pa.). Upon deacetylation of the substrate by incubation with the purified HDAC1 complex, a fluorophore is produced that is directly proportional to the level of deacetylation.
# T1 sequence (Q13547 whole entry): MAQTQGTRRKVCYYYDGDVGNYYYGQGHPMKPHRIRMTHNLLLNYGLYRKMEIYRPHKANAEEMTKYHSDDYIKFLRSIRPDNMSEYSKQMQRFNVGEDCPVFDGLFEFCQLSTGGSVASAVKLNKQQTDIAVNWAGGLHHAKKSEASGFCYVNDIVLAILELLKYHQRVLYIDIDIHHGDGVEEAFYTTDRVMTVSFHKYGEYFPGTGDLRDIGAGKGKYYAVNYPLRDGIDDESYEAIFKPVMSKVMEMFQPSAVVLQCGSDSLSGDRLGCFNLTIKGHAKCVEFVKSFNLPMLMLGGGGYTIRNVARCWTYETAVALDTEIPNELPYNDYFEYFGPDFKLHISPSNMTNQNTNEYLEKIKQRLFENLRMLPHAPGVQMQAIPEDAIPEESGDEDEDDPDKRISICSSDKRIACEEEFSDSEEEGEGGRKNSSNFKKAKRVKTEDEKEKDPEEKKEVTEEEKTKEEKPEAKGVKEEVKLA
Compound,IC50 [1] [nM],inhibition at 10 µM [2] [%],inhibition at 100 µM [2] [%],IC50 [2] [nM]
"O=C(CCCCCCC(=O)Nc1ccccc1)NOC(=O)CCCc1ccccc1 [VI, Octanedioic acid phenylamide(4-phenyl-butyryloxy)-amide]",1540,27,62,
"O=C(CCCCCCC(=O)Nc1ccccc1)NOC(=O)c1ccc(-c2ccccc2)cc1 [VIII, Octanedioic acid (biphenyl-4-carbonyloxy)-amide phenylamide]",1380,94,99,
"O=C(CCCCCCC(=O)Nc1ccccc1)NOC(=O)c1ccc2ccccc2c1 [X, Octanedioic acid (naphthalene-2-carbonyloxy)-amide phenylamide]",1790,9,22,
"COc1ccc(C(=O)ONC(=O)CCCCCCC(=O)Nc2ccccc2)cc1 [XIII, Octanedioic acid (4-methoxy-benzoyloxy)-amide phenylamide]",748,21,65,
"O=C(CCCCCCC(=O)Nc1ccccc1)NOC(=O)[C@H](Cc1ccccc1)NC(=O)OCc1ccccc1 [XVII, [1-Benzyl-2-oxo-2-(7-phenylcarbamoyl-heptanoylaminooxy)-ethyl]-carbamic acid benzyl ester]",753,94,99,
"Cc1ccc(C(=O)ONC(=O)CCCCCCC(=O)Nc2ccccc2)cc1 [XIV, Octanedioic acid (4-methyl-benzoyloxy)-amide phenylamide]",862,38,74,
"O=C(CCCCCCC(=O)Nc1ccccc1)NOC(=O)CCCCCCC(=O)Nc1ccccc1 [I, Octanedioic acid phenylamide(7-phenylcarbamoyl-heptanoyloxy)-amide]",785 ± 4.9,45,79,51900
"O=C(CCCCCCC(=O)Nc1ccccc1)NOC(=O)c1cccc2ccccc12 [XI, Octanedioic acid (naphthalene-1-carbonyloxy)-amide phenylamide]",5220,5,5,
"O=C(CCCCCCC(=O)Nc1ccccc1)NOC(=O)c1ccccc1 [IX, Octanedioic acid benzoyloxy-amide phenylamide]",1200,20,60,
"CCCCc1ccc(C(=O)ONC(=O)CCCCCCC(=O)Nc2ccccc2)cc1 [IV, Octanedioic acid (4-butyl-benzoyloxy)-amide phenylamide]",1760,10,50,
"CC(=O)ONC(=O)CCCCCCC(=O)Nc1ccccc1 [II, Octanedioic acid acetoxy-amide phenylamide]",246 ± 78.4,-17,2,

# The remaining lines, values ahead:
IC50 [1] [nM],inhibition at 10 µM [2] [%],inhibition at 100 µM [2] [%],IC50 [2] [nM],Compound
592,23,48,,"COc1ccccc1C(=O)ONC(=O)CCCCCCC(=O)Nc1ccccc1 [XV, Octanedioic acid (2-methoxy-benzoyloxy)-amide phenylamide]"
648,26,45,,"O=C(CCCCCCC(=O)Nc1ccccc1)NOC(=O)/C=C/c1ccccc1 [VII, Octanedioic acid (3-phenyl-acryloyloxy)-amide phenylamide]"
446,87,96,,"CC(C)(C)OC(=O)N[C@@H](Cc1ccccc1)C(=O)ONC(=O)CCCCCCC(=O)Nc1ccccc1 [XIX, [1-Benzyl-2-oxo-2-(7-phenylcarbamoyl-heptanoylaminooxy)-ethyl]-carbamic acid tert-butyl ester]"
434,24,36,,"O=C(CCCCCCC(=O)Nc1ccccc1)NOC(=O)c1ccc(Cl)cc1 [XVI, Octanedioic acid (4-chloro-benzoyloxy)-amide phenylamide]"
252 ± 56.5,87,97,582 ± 312,"O=C(CCCCCCC(=O)Nc1ccccc1)NOC(=O)c1cccnc1 [III, Octanedioic acid phenylamide(pyridine-3-carbonyloxy)-amide]"
491 ± 327,64,90,1680 ± 1200,"O=C(CCCCCCC(=O)Nc1ccccc1)NOC(=O)CCc1ccccc1 [V, Octanedioic acid phenylamide(3-phenyl-propionyloxy)-amide]"
494,20,43,,"COc1cccc(C(=O)ONC(=O)CCCCCCC(=O)Nc2ccccc2)c1 [XII, Octanedioic acid (3-methoxy-benzoyloxy)-amide phenylamide]"
443,78,93,,"O=C(CCCCCCC(=O)Nc1ccccc1)NOC(=O)[C@@H](Cc1ccccc1)NC(=O)OCc1ccccc1 [XVIII, [1-Benzyl-2-oxo-2-(7-phenylcarbamoyl-heptanoylaminooxy)-ethyl]-carbamic acid benzyl ester]"
